What follows are compounds tested on HeLa cells (assay: MTT antiproliferative assay on HeLa). Conditions: Homo sapiens, HeLa, 10 μM; read-out: Growth inhibition (% ± SEM), HeLa.
Format: cell-based, human
Method: (§1) The antiproliferative assays of the products were carried out by a standard MTT method on human breast (MCF-7, T47D), cervical (HeLa, SiHa, C33A), and ovarian (A2780) cancer cells, and NIH/3T3 mouse embryonic fibroblast cell lines. In the first step, the diastereomeric and racemic mixtures 1–11 and the starting compound, juncuenin B, were tested to obtain information about their antiproliferative activity.
(§2) The antiproliferative activity and tumor selectivity of the compounds were measured by standard MTT assays. Tumor cell lines MCF-7, T47D, HeLa, A2780, and noncancerous NIH/3T3 were provided by European Collection of Authenticated Cell Cultures (ECACC, Salisbury, UK); cell lines SiHa and C33A by LGC Standards GmbH (Wesel, Germany). All chemicals and materials used for the antiproliferative assays were purchased from Sigma Aldrich Ltd. (Budapest, Hungary).
(§3) Growth-inhibition properties of racemates and pure enantiomer compounds were determined by standard MTT assays on six human malignant gynecological cell lines (MCF-7, T47D, HeLa, SiHa, C33A, A2780). To investigate tumor selectivity, the MTT assay was repeated on mouse embryonic fibroblast cells (NIH/3T3) under the same conditions. All cell lines were maintained in minimal essential medium (MEM) supplemented with 10% fetal bovine serum, 1% nonessential amino acids, and 1% penicillin–streptomycin–amphotericin B mixture, and were stored in humidified air containing 5% CO2 at 37 °C. All cell types were seeded into 96–well plates at a density of 5000 with the exception of C33a, which was seeded at a density of 10 000 and treated by increasing concentrations (0.1–30 μM) of the compounds for 72 h under cell culturing conditions. After the incubation, 5 mg/mL MTT [3-(4,5-dimethylthiazol-2-yl)-2,5-diphenyltetrazolium bromide] solution was added to samples for 4 h and precipitated blue formazan crystals were dissolved in DMSO. Absorbance values of the samples were measured at 545 nm using a microplate reader (Stat Fax-2100, Awareness Technologies Inc., Palm City, FL, USA) and untreated cells were used as control. Normalized sigmoidal dose–response curves were fitted to the determined data and the IC50 values were calculated by GraphPad Prism 5.01 (GraphPad Software, San Diego, CA, USA). Cisplatin (Ebewe Pharma GmbH, Unterach, Austria) was used as a reference agent in the same concentration range.

Q: C=CC1=C(C)C(=O)C=C2C3=C(CC[C@]21OC)[C@](C)(OC)C(=O)C=C3 [Compound 1d, 2,6-dioxo-1,8a-dimethoxy-1,7-dimethyl-8-vinyl-9,10-dihydrophenanthrenes] was tested. Which inhibition at 10 µM did it give?
A: 11.4 ± 2.71%

Same assay, conditions: Homo sapiens, HeLa, 30 μM; read-out: Growth inhibition (% ± SEM), HeLa

Q: Which inhibition at 30 µM does the source give for C=CC1=C(C)C(=O)C=C2C3=C(CC[C@]21OC)[C@](C)(OC)C(=O)C=C3 [Compound 1d, 2,6-dioxo-1,8a-dimethoxy-1,7-dimethyl-8-vinyl-9,10-dihydrophenanthrenes] here?
A: 25.1 ± 3.84%

Same assay, conditions: Homo sapiens, HeLa; MTT, 0.1–30 μM, 72 h, mean ± SEM; read-out: calculated IC50 values, HeLa

Q: For C=CC1=C(C)C(=O)C=C2C3=C(CC[C@]21OC)[C@](C)(OC)C(=O)C=C3 [Compound 1d, 2,6-dioxo-1,8a-dimethoxy-1,7-dimethyl-8-vinyl-9,10-dihydrophenanthrenes], which IC50 is on record?
A: > 30 µM

These compounds were tested on C33A cells (assay: MTT antiproliferative assay on C33A). Conditions: Homo sapiens, C-33-A, 10 μM; read-out: Growth inhibition (% ± SEM), C33a.
Format: cell-based, human
Method: as §1, §2, §3

Q: C=CC1=C(C)C(=O)C=C2C3=C(CC[C@]21OC)[C@](C)(OC)C(=O)C=C3 [Compound 1d, 2,6-dioxo-1,8a-dimethoxy-1,7-dimethyl-8-vinyl-9,10-dihydrophenanthrenes] was tested. Which inhibition at 10 µM did it give?
A: 22.1 ± 1.44%

Same assay, conditions: Homo sapiens, C-33-A, 30 μM; read-out: Growth inhibition (% ± SEM), C33a

Q: With C=CC1=C(C)C(=O)C=C2C3=C(CC[C@]21OC)[C@](C)(OC)C(=O)C=C3 [Compound 1d, 2,6-dioxo-1,8a-dimethoxy-1,7-dimethyl-8-vinyl-9,10-dihydrophenanthrenes] as the compound, how does the inhibition at 30 µM read?
A: 89.4 ± 1%

Same assay, conditions: Homo sapiens, C-33-A; MTT, 0.1–30 μM, 72 h, mean ± SEM; read-out: calculated IC50 values, C33A

Q: For C=CC1=C(C)C(=O)C=C2C3=C(CC[C@]21OC)[C@](C)(OC)C(=O)C=C3 [Compound 1d, 2,6-dioxo-1,8a-dimethoxy-1,7-dimethyl-8-vinyl-9,10-dihydrophenanthrenes], which IC50 is on record?
A: 13 ± 0.2 µM

These compounds were tested on T47D cells (assay: MTT antiproliferative assay on T47D). Conditions: Homo sapiens, T47D, 10 μM; read-out: Growth inhibition (% ± SEM), T47d.
Format: cell-based, human
Method: as §1, §2, §3

Q: How did the inhibition at 10 µM turn out when C=CC1=C(C)C(=O)C=C2C3=C(CC[C@]21OC)[C@](C)(OC)C(=O)C=C3 [Compound 1d, 2,6-dioxo-1,8a-dimethoxy-1,7-dimethyl-8-vinyl-9,10-dihydrophenanthrenes] was run?
A: < 10%

Same assay, conditions: Homo sapiens, T47D, 30 μM; read-out: Growth inhibition (% ± SEM), T47d

Q: C=CC1=C(C)C(=O)C=C2C3=C(CC[C@]21OC)[C@](C)(OC)C(=O)C=C3 [Compound 1d, 2,6-dioxo-1,8a-dimethoxy-1,7-dimethyl-8-vinyl-9,10-dihydrophenanthrenes] was tested. Which inhibition at 30 µM did it give?
A: 41.8 ± 1.15%

Same assay, conditions: Homo sapiens, T47D; MTT, 0.1–30 μM, 72 h, mean ± SEM; read-out: calculated IC50 values, T47D

Q: C=CC1=C(C)C(=O)C=C2C3=C(CC[C@]21OC)[C@](C)(OC)C(=O)C=C3 [Compound 1d, 2,6-dioxo-1,8a-dimethoxy-1,7-dimethyl-8-vinyl-9,10-dihydrophenanthrenes] was tested. Which IC50 did it give?
A: > 30 µM

Each compound was assayed on SiHa cells (assay: MTT antiproliferative assay on SiHa). Conditions: Homo sapiens, SiHa, 10 μM; read-out: Growth inhibition (% ± SEM), SiHa.
Format: cell-based, human
Method: as §1, §2, §3

Q: C=CC1=C(C)C(=O)C=C2C3=C(CC[C@]21OC)[C@](C)(OC)C(=O)C=C3 [Compound 1d, 2,6-dioxo-1,8a-dimethoxy-1,7-dimethyl-8-vinyl-9,10-dihydrophenanthrenes] was tested. Which inhibition at 10 µM did it give?
A: < 10%

Same assay, conditions: Homo sapiens, SiHa, 30 μM; read-out: Growth inhibition (% ± SEM), SiHa

Q: Which inhibition at 30 µM does the source give for C=CC1=C(C)C(=O)C=C2C3=C(CC[C@]21OC)[C@](C)(OC)C(=O)C=C3 [Compound 1d, 2,6-dioxo-1,8a-dimethoxy-1,7-dimethyl-8-vinyl-9,10-dihydrophenanthrenes] here?
A: 11.6 ± 2.33%

Same assay, conditions: Homo sapiens, SiHa; MTT, 0.1–30 μM, 72 h, mean ± SEM; read-out: calculated IC50 values, SiHa

Q: C=CC1=C(C)C(=O)C=C2C3=C(CC[C@]21OC)[C@](C)(OC)C(=O)C=C3 [Compound 1d, 2,6-dioxo-1,8a-dimethoxy-1,7-dimethyl-8-vinyl-9,10-dihydrophenanthrenes] was tested. Which IC50 did it give?
A: > 30 µM

The compounds below were run on A2780 cells (assay: MTT antiproliferative assay on A2780). Conditions: Homo sapiens, A2780, 10 μM; read-out: Growth inhibition (% ± SEM), A2780.
Format: cell-based, human
Method: as §1, §2, §3

Q: For C=CC1=C(C)C(=O)C=C2C3=C(CC[C@]21OC)[C@](C)(OC)C(=O)C=C3 [Compound 1d, 2,6-dioxo-1,8a-dimethoxy-1,7-dimethyl-8-vinyl-9,10-dihydrophenanthrenes], which inhibition at 10 µM is on record?
A: 45.1 ± 2.08%

Same assay, conditions: Homo sapiens, A2780, 30 μM; read-out: Growth inhibition (% ± SEM), A2780

Q: With C=CC1=C(C)C(=O)C=C2C3=C(CC[C@]21OC)[C@](C)(OC)C(=O)C=C3 [Compound 1d, 2,6-dioxo-1,8a-dimethoxy-1,7-dimethyl-8-vinyl-9,10-dihydrophenanthrenes] as the compound, how does the inhibition at 30 µM read?
A: 92.39 ± 0.36%

Same assay, conditions: Homo sapiens, A2780; MTT, 0.1–30 μM, 72 h, mean ± SEM; read-out: calculated IC50 values, A2780

Q: How did the IC50 turn out when C=CC1=C(C)C(=O)C=C2C3=C(CC[C@]21OC)[C@](C)(OC)C(=O)C=C3 [Compound 1d, 2,6-dioxo-1,8a-dimethoxy-1,7-dimethyl-8-vinyl-9,10-dihydrophenanthrenes] was run?
A: 11 ± 0.4 µM

These compounds were tested on MCF-7 cells (assay: MTT antiproliferative assay on MCF-7). Conditions: Homo sapiens, MCF7, 10 μM; read-out: Growth inhibition (% ± SEM), MCF-7.
Format: cell-based, human
Method: as §1, §2, §3

Q: With C=CC1=C(C)C(=O)C=C2C3=C(CC[C@]21OC)[C@](C)(OC)C(=O)C=C3 [Compound 1d, 2,6-dioxo-1,8a-dimethoxy-1,7-dimethyl-8-vinyl-9,10-dihydrophenanthrenes] as the compound, how does the inhibition at 10 µM read?
A: < 10%

Same assay, conditions: Homo sapiens, MCF7, 30 μM; read-out: Growth inhibition (% ± SEM), MCF-7

Q: How did the inhibition at 30 µM turn out when C=CC1=C(C)C(=O)C=C2C3=C(CC[C@]21OC)[C@](C)(OC)C(=O)C=C3 [Compound 1d, 2,6-dioxo-1,8a-dimethoxy-1,7-dimethyl-8-vinyl-9,10-dihydrophenanthrenes] was run?
A: 34.6 ± 1.38%

Same assay, conditions: Homo sapiens, MCF7; MTT, 0.1–30 μM, 72 h, mean ± SEM; read-out: calculated IC50 values, MCF-7

Q: C=CC1=C(C)C(=O)C=C2C3=C(CC[C@]21OC)[C@](C)(OC)C(=O)C=C3 [Compound 1d, 2,6-dioxo-1,8a-dimethoxy-1,7-dimethyl-8-vinyl-9,10-dihydrophenanthrenes] was tested. Which IC50 did it give?
A: > 30 µM

What follows are compounds tested on NIH/3T3 mouse embryonic fibroblast cells (assay: MTT assay for tumor selectivity on NIH/3T3). Conditions: Mus musculus, NIH3T3; 10 μM; read-out: Growth inhibition (% ± SEM), NIH.
Format: cell-based
Method: as §1, §2, §3

Q: How did the inhibition at 10 µM turn out when C=CC1=C(C)C(=O)C=C2C3=C(CC[C@]21OC)[C@](C)(OC)C(=O)C=C3 [Compound 1d, 2,6-dioxo-1,8a-dimethoxy-1,7-dimethyl-8-vinyl-9,10-dihydrophenanthrenes] was run?
A: < 10%

Same assay, conditions: Mus musculus, NIH3T3; 30 μM; read-out: Growth inhibition (% ± SEM), NIH

Q: With C=CC1=C(C)C(=O)C=C2C3=C(CC[C@]21OC)[C@](C)(OC)C(=O)C=C3 [Compound 1d, 2,6-dioxo-1,8a-dimethoxy-1,7-dimethyl-8-vinyl-9,10-dihydrophenanthrenes] as the compound, how does the inhibition at 30 µM read?
A: 30.7 ± 2.04%

Same assay, conditions: Mus musculus, NIH3T3; MTT, 0.1–30 μM, 72 h, mean ± SEM; read-out: calculated IC50 values, NIH/3T3

Q: Which IC50 does the source give for C=CC1=C(C)C(=O)C=C2C3=C(CC[C@]21OC)[C@](C)(OC)C(=O)C=C3 [Compound 1d, 2,6-dioxo-1,8a-dimethoxy-1,7-dimethyl-8-vinyl-9,10-dihydrophenanthrenes] here?
A: > 30 µM

Source: paper PMC7707621, “Oxidized Juncuenin B Analogues with Increased Antiproliferative Activity on Human Adherent Cell Lines: Semisynthesis and Biological Evaluation” (Journal of Natural Products, 2020)
